Reference: publication PMC11206988, “Study on the Effect of Pharmaceutical Excipient PEG400 on the Pharmacokinetics of Baicalin in Cells Based on MRP2, MRP3, and BCRP Efflux Transporters” (Pharmaceutics, 2024)
Like-named read-outs stand apart in the source and are kept apart here.

Biological target: T1, BCRP (Homo sapiens, UniProt Q9UNQ0)
T1 construct: expressed in transfected cells; host or cells: MDCK II
T1 sequence (Q9UNQ0 1-655): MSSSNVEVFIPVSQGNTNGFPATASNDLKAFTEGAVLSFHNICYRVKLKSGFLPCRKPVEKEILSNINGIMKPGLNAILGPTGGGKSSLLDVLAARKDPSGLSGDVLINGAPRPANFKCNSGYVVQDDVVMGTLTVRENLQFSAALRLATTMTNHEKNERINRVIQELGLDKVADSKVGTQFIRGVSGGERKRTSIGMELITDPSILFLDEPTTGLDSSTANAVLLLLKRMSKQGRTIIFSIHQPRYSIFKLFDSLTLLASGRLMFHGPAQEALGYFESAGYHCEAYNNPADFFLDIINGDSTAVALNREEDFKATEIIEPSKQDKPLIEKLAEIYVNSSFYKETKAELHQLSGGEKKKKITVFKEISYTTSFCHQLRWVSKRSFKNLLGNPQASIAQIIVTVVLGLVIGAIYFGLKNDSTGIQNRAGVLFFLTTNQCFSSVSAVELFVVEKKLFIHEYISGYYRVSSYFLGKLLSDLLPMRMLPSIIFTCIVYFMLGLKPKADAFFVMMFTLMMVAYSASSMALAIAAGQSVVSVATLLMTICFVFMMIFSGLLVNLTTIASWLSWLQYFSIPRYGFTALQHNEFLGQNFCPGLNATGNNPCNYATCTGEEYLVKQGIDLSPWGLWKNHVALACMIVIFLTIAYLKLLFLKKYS
Assay: Transport of baicalin across MDCK II-BCRP cell monolayer (transwell)
Assay type: in vitro ADME
Settings: pH 7.4, MDCK II-BCRP
Experimental: The cells were inoculated at a density of 0.5 mL (1 × 10^5) in the upper layer of the transwell plate (AP side), and the culture was changed daily after the lower layer was added with 1.5 mL of complete medium without cells every other day. After 5–7 days of growth, the supernatant was aspirated and discarded, and the cell monolayer was rinsed twice with 37 °C Hank’s Balanced Salt Solution (HBSS, pH 7.4). The electrical resistance of the cell monolayer compartments was measured with a resistivity meter (TEER), and the integrity of the cell monolayer was monitored using TEER. The differentiation of MDCK II-WT, MDCK II-MRP2, MDCK II-MRP3, and MDCK II-BCRP cells was examined by determining sodium fluorescein permeability prior to transit experiments. This was done in order to determine the integrity of the cell monolayer. When the TEER value of the cell monolayer was greater than 150 Ω·cm^2 and the MDCK II-MRP2, MDCK II-MRP3, and MDCK II-BCRP sodium fluorescein permeability was less than 0.5 × 10^−6 cm/s or the MDCK II-WT sodium fluorescein permeability was less than 1 × 10^−6 cm/s, the cell monolayer was considered intact and suitable for transit experiments. TEER = (TEERcell monolayer − TEERblank) × Aarea(1) wherein TEERcell monolayer is the resistance of the cell monolayer read directly from the Millicell ERS-2 resistivity meter, and TEERblank is the resistance read by inserting a blank HBSS (no cells) only. Aarea is the surface area of the filter membrane, 1.12 cm^2.
In this experiment, a 100 μM baicalin solution (dissolved in HBSS) containing different concentrations of PEG400 (0.25%, 0.5%, and 1%) was employed as the test solution, while a solution without PEG400 was used as the blank test solution, which was added to AP or BL chambers, respectively. In the top to basolateral (AP-BL) transport experiment, the 0.5 mL sample added to the apical side (AP) was utilized as the supply room, and the HBSS preheated to 1.5 mL 37 °C was added to the basolateral (BL) as the receiving chamber. Conversely, in the basal low lateral to top (BL-AP) transport experiment, the 1.5 mL sample (dissolved in HBSS) was added to the BL side as the supply room, and the 0.5 mL preheated HBSS was added as a receiving room on the AP side. Once the aforementioned steps had been completed, the transwell was placed on a 37 °C thermostatic oscillator at 60 r/min, and 100 μL was withdrawn from the receiving cell or 10 μL from the supply chamber at 30, 60, 90, and 120 min, depending on the experiment, and replenished with an equal volume of blank 37 °C preheated HBSS. The samples were utilized to precipitate the proteins with 100 μL of methanol containing the internal standard for 10 min. After centrifugation at 16,000× g for 15 min at 4 °C, the supernatant was collected in a volume of 70 μL. The contents were determined by UPLC-MS/MS, and apparent permeability coefficients (PAPP) and efflux ratios (ER) were calculated.
The formulas for calculating Papp and ER of monolayer and monolayer are as follows:(2) Papp=dQ/dt/AC0 wherein dQ/dt (ng/mL·s) is the transit rate (ng/mL·s); A is the membrane area (1.12 cm^2); and C0 (ng/mL) is the initial concentration of the sample in the supply chamber. ER = PappBL-AP/PappAP-BL (3) wherein PappBL-AP is the apparent permeability coefficient when the BL is added to the sample, and PappAP-BL is the apparent permeability coefficient when the sample is added at the top side (AP).

**Q.** `O=C(O)[C@H]1O[C@@H](Oc2cc3oc(-c4ccccc4)cc(=O)c3c(O)c2O)[C@H](O)[C@@H](O)[C@@H]1O` [BG, Baicalein-7-O-β-D-glucuronide] was tested. Which Papp A→B at 120 min, 100 μM (100 μM BG + 0.25% PEG400) did it give?
**A.** 56.4 ± 4.8 nm/s

**Q.** What about the Papp B→A at 120 min, 100 μM (100 μM BG + 0.25% PEG400) of the same compound?
**A.** 89.8 ± 4.2 nm/s

**Q.** What about the efflux ratio at 120 min, 100 μM (100 μM BG + 0.25% PEG400, read-out: ER) of the same compound?
**A.** 1.59 ± 0.06

**Q.** And the Papp A→B at 120 min, 100 μM (100 μM BG + 0.5% PEG400)?
**A.** 74 ± 4.3 nm/s

**Q.** And the Papp B→A at 120 min, 100 μM (100 μM BG + 0.5% PEG400)?
**A.** 75.1 ± 4.7 nm/s

**Q.** And the efflux ratio at 120 min, 100 μM (100 μM BG + 0.5% PEG400, read-out: ER)?
**A.** 1.02 ± 0.04

**Q.** What about the Papp A→B at 120 min, 100 μM (100 μM BG + 1% PEG400) of the same compound?
**A.** 85.9 ± 1.9 nm/s

**Q.** What about the Papp B→A at 120 min, 100 μM (100 μM BG + 1% PEG400) of the same compound?
**A.** 69 ± 0.4 nm/s

**Q.** What about the efflux ratio at 120 min, 100 μM (100 μM BG + 1% PEG400, read-out: ER) of the same compound?
**A.** 0.8 ± 0.02

**Q.** What about the Papp A→B at 120 min, 100 μM (100 μM BG alone) of the same compound?
**A.** 34.3 ± 0.7 nm/s

**Q.** And the Papp B→A at 120 min, 100 μM (100 μM BG alone)?
**A.** 103.4 ± 0.2 nm/s

**Q.** What about the efflux ratio at 120 min, 100 μM (100 μM BG alone, read-out: ER) of the same compound?
**A.** 3.01 ± 0.05
